Assay results from the supplement of paper PMC13207355.
Several values for one entry are separate records, joined by “and”; a condition that tells them apart may be missing. Equal entries are not always repeated.

What was measured:
Conditions in all cases: exposure time: 72 h
[1] = system: E13 (patient-derived glioblastoma stem cells of classical subtype); assay: surviving fraction (nuclei count normalised to DMSO); higher = more cells surviving (less toxic)
[2] = system: E21 (patient-derived glioblastoma stem cells of mesenchymal subtype); assay: as above
[3] = system: E28 (patient-derived glioblastoma stem cells of classical subtype); assay: as above
[4] = system: E31 (patient-derived glioblastoma stem cells of proneural subtype); assay: as above
[5] = system: E34 (patient-derived glioblastoma stem cells of proneural subtype); assay: as above
[6] = system: E57 (patient-derived glioblastoma stem cells of mesenchymal subtype); assay: as above
[7] = system: FT3469 (normal neural stem cell line); assay: as above
[8] = system: E13; assay: phenotypic distance (Euclidean, principal components) from DMSO controls (arbitrary units); higher = stronger morphological change
[9] = system: E21; assay: as above
[10] = system: E28; assay: as above
[11] = system: E31; assay: as above
[12] = system: E34; assay: as above
[13] = system: E57; assay: as above
[14] = system: FT3469; assay: as above
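For phenotypic distance (Euclidean, principal components) from DMSO controls in this document: cell Painting imaging in 384-well plates, CellProfiler features reduced to at least 20 principal components, Euclidean distance versus same-plate DMSO vehicle wells (0.1% v/v), median over six images per well.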
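For surviving fraction (nuclei count normalised to DMSO) in this document: nuclei counted by high-content imaging of Hoechst-stained cells in laminin-coated 384-well plates, relative to 0.1% DMSO vehicle wells, with staurosporine as cell-death control.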

Cc1ccc(C(=O)N(CCCN)[C@@H](c2oc3cc(Cl)ccc3c(=O)c2Cc2ccccc2)C(C)C)cc1
Conditions	phenotypic distance	surviving fraction
[1], 4.1 nM	–	0.451 and 0.49
[1], 12.3 nM	–	0.443 and 0.489
[1], 37 nM	–	0.461 and 0.468
[1], 111.1 nM	–	0.399 and 0.43
[1], 333.3 nM	–	0.428 and 0.492
[1], 1000 nM	–	0.445 and 0.399
[2], 4.1 nM	–	0.198 and 0.164
[2], 12.3 nM	–	0.186 and 0.161
[2], 37 nM	–	0.159 and 0.158
[2], 111.1 nM	–	0.192 and 0.177
[2], 333.3 nM	–	0.178 and 0.162
[2], 1000 nM	–	0.21 and 0.182
[3], 4.1 nM	–	0.424 and 0.34
[3], 12.3 nM	–	0.335 and 0.367
[3], 37 nM	–	0.415 and 0.342
[3], 111.1 nM	–	0.346 and 0.352
[3], 333.3 nM	–	0.428 and 0.43
[3], 1000 nM	–	0.328 and 0.336
[4], 4.1 nM	–	0.165
[4], 12.3 nM	–	0.184
[4], 37 nM	–	0.189
[4], 111.1 nM	–	0.126
[4], 333.3 nM	–	0.171
[4], 1000 nM	–	0.174
[4], 3000 nM	–	0.00446
[5], 4.1 nM	–	0.598 and 0.534
[5], 12.3 nM	–	0.575 and 0.607
[5], 37 nM	–	0.606 and 0.576
[5], 111.1 nM	–	0.429 and 0.564
[5], 333.3 nM	–	0.575 and 0.595
[5], 1000 nM	–	0.549 and 0.594
[6], 4.1 nM	–	0.0969 and 0.0961
[6], 12.3 nM	–	0.0867 and 0.0693
[6], 37 nM	–	0.0872 and 0.0935
[6], 111.1 nM	–	0.101 and 0.085
[6], 333.3 nM	–	0.0996 and 0.117
[6], 1000 nM	–	0.119 and 0.0974
[7], 4.1 nM	–	0.493 and 0.523
[7], 12.3 nM	–	0.562 and 0.558
[7], 37 nM	–	0.606 and 0.566
[7], 111.1 nM	–	0.534 and 0.565
[7], 333.3 nM	–	0.489 and 0.597
[7], 1000 nM	–	0.556 and 0.549
[8], 4.1 nM	3.01 and 2.45	–
[8], 12.3 nM	3.35 and 2.7	–
[8], 37 nM	2.78	–
[8], 111.1 nM	3.42 and 3.07	–
[8], 333.3 nM	2.78 and 2.91	–
[8], 1000 nM	2.81 and 3.02	–
[8], 3000 nM	2.53 and 5.91	–
[9], 4.1 nM	6.85 and 5.14	–
[9], 12.3 nM	6.99 and 5.4	–
[9], 37 nM	7.53 and 5.43	–
[9], 111.1 nM	5.98 and 4.77	–
[9], 333.3 nM	7.67 and 4.85	–
[9], 1000 nM	6.93 and 5.54	–
[9], 3000 nM	10.1 and 4.79	–
[10], 4.1 nM	3.6 and 2.9	–
[10], 12.3 nM	3.5 and 3.14	–
[10], 37 nM	3.73 and 3.19	–
[10], 111.1 nM	3.42 and 3.15	–
[10], 333.3 nM	3.17 and 2.59	–
[10], 1000 nM	3.49 and 3.39	–
[11], 4.1 nM	4.81	–
[11], 12.3 nM	3.13	–
[11], 37 nM	3.36	–
[11], 111.1 nM	3.73	–
[11], 333.3 nM	4.39	–
[11], 1000 nM	3.79	–
[11], 3000 nM	11.9	–
[12], 4.1 nM	2.72 and 1.93	–
[12], 12.3 nM	2.65 and 1.73	–
[12], 37 nM	2.52 and 2.06	–
[12], 111.1 nM	2.4 and 1.93	–
[12], 333.3 nM	2.3 and 2.24	–
[12], 1000 nM	2.35 and 1.99	–
[13], 4.1 nM	8.08 and 4.22	–
[13], 12.3 nM	4.11 and 7.9	–
[13], 37 nM	4.48 and 8.38	–
[13], 111.1 nM	4.53 and 7.47	–
[13], 333.3 nM	4.17 and 7.46	–
[13], 1000 nM	4.05 and 7.38	–
[13], 3000 nM	3.9 and 9.85	–
[14], 4.1 nM	2.95 and 2.85	–
[14], 12.3 nM	2.63 and 2.23	–
[14], 37 nM	2.78 and 2.25	–
[14], 111.1 nM	3.02 and 2.28	–
[14], 333.3 nM	3.08 and 2.17	–
[14], 1000 nM	2.54 and 2.94	–

CC1=C(/C=C/C(C)=C/C=C/C(C)=C/C(=O)Nc2ccc(O)cc2)C(C)(C)CCC1 [Retinoic acid p-hydroxyanilide]
Conditions	phenotypic distance	surviving fraction
[1], 4.1 nM	–	0.963
[1], 12.3 nM	–	0.967
[1], 37 nM	–	1.09
[1], 333.3 nM	–	1.07
[1], 1000 nM	–	0.734
[1], 3000 nM	–	0.00947
[2], 4.1 nM	–	1.05
[2], 12.3 nM	–	0.947
[2], 37 nM	–	0.953
[2], 333.3 nM	–	1.02
[2], 1000 nM	–	0.781
[2], 3000 nM	–	0.00532
[3], 4.1 nM	–	1.11
[3], 12.3 nM	–	0.963
[3], 37 nM	–	1.13
[3], 333.3 nM	–	1.08
[3], 1000 nM	–	0.931
[3], 3000 nM	–	0.00413
[4], 4.1 nM	–	0.912
[4], 12.3 nM	–	0.905
[4], 37 nM	–	0.993
[4], 333.3 nM	–	1.05
[4], 1000 nM	–	0.927
[4], 3000 nM	–	0.00743
[5], 4.1 nM	–	1.28
[5], 12.3 nM	–	1.05
[5], 37 nM	–	0.937
[5], 333.3 nM	–	1.08
[5], 1000 nM	–	0.967
[5], 3000 nM	–	0.00196
[6], 4.1 nM	–	1.12
[6], 12.3 nM	–	1.08
[6], 37 nM	–	1.05
[6], 333.3 nM	–	1.06
[6], 1000 nM	–	1.03
[6], 3000 nM	–	0.00394
[7], 4.1 nM	–	1
[7], 12.3 nM	–	1.04
[7], 37 nM	–	1.04
[7], 333.3 nM	–	0.89
[7], 1000 nM	–	0.901
[7], 3000 nM	–	0.0056
[8], 4.1 nM	0.545	–
[8], 12.3 nM	0.333	–
[8], 37 nM	0.641	–
[8], 333.3 nM	3.32	–
[8], 1000 nM	4.24	–
[8], 3000 nM	9.85	–
[9], 4.1 nM	0.779	–
[9], 12.3 nM	0.993	–
[9], 37 nM	0.775	–
[9], 333.3 nM	1.03	–
[9], 1000 nM	2.42	–
[9], 3000 nM	10.8	–
[10], 4.1 nM	0.643	–
[10], 12.3 nM	0.734	–
[10], 37 nM	0.511	–
[10], 333.3 nM	0.842	–
[10], 1000 nM	1.73	–
[10], 3000 nM	19.3	–
[11], 4.1 nM	0.825	–
[11], 12.3 nM	0.482	–
[11], 37 nM	0.638	–
[11], 333.3 nM	1.69	–
[11], 1000 nM	2.86	–
[11], 3000 nM	18.6	–
[12], 4.1 nM	0.884	–
[12], 12.3 nM	0.569	–
[12], 37 nM	0.817	–
[12], 333.3 nM	1.4	–
[12], 1000 nM	2.38	–
[12], 3000 nM	19.6	–
[13], 4.1 nM	0.591	–
[13], 12.3 nM	0.726	–
[13], 37 nM	0.599	–
[13], 333.3 nM	0.631	–
[13], 1000 nM	1.92	–
[13], 3000 nM	15.3	–
[14], 4.1 nM	0.589	–
[14], 12.3 nM	0.564	–
[14], 37 nM	0.708	–
[14], 333.3 nM	1.89	–
[14], 1000 nM	2.61	–
[14], 3000 nM	17.7	–
